Test: The drug is tested on Bacteroides xylanisolvens strain: DSM18836 for biotransformation. The drug concentrations were measured before and after a 12-h incubation by liquid-chromatography-coupled mass spectrometry (LC–MS)
Settings: 2 µM

Structure (SMILES) | Bacterial Biotransformation
Cc1cc2c(s1)Nc1ccccc1N=C2N1CCN(C)CC1 [OLANZAPINE] | Compound NOT metabolized
CC(=O)O[C@]1(C(C)=O)CC[C@H]2[C@@H]3C=C(Cl)C4=CC(=O)[C@@H]5C[C@@H]5[C@]4(C)[C@H]3CC[C@@]21C [CYPROTERONE ACETATE] | Compound metabolized

Test: The drug is tested on Bacteroides sp. WH2 strain: WH2 for biotransformation. The drug concentrations were measured before and after a 12-h incubation by liquid-chromatography-coupled mass spectrometry (LC–MS)
Settings: bacteroides sp. wh2, 12 h, 2 µM

Structure (SMILES) | Bacterial Biotransformation
CN1CCN2c3ccccc3Cc3ccccc3C2C1 (stereo not given) [MIANSERIN] | Compound NOT metabolized
CC(=O)O[C@]1(C(C)=O)CC[C@H]2[C@@H]3C=C(Cl)C4=CC(=O)[C@@H]5C[C@@H]5[C@]4(C)[C@H]3CC[C@@]21C [CYPROTERONE ACETATE] | Compound NOT metabolized

Test: The drug is tested on Providencia stuartii strain: ATCC25827 for biotransformation. The drug concentrations were measured before and after a 12-h incubation by liquid-chromatography-coupled mass spectrometry (LC–MS)
Settings: 2 µM

Structure (SMILES) | Bacterial Biotransformation
CN1CCN2c3ccccc3Cc3ccccc3C2C1 (stereo not given) [MIANSERIN] | Compound NOT metabolized

Test: The drug is tested on Collinsella aerofaciens strain: ATCC25986 for biotransformation. The drug concentrations were measured before and after a 12-h incubation by liquid-chromatography-coupled mass spectrometry (LC–MS)
Settings: 2 µM

Structure (SMILES) | Bacterial Biotransformation
CN1CCN2c3ccccc3Cc3ccccc3C2C1 (stereo not given) [MIANSERIN] | Compound NOT metabolized
Cc1cc2c(s1)Nc1ccccc1N=C2N1CCN(C)CC1 [OLANZAPINE] | Compound NOT metabolized
CC(=O)O[C@]1(C(C)=O)CC[C@H]2[C@@H]3C=C(Cl)C4=CC(=O)[C@@H]5C[C@@H]5[C@]4(C)[C@H]3CC[C@@]21C [CYPROTERONE ACETATE] | Compound metabolized

Test: The drug is tested on Ruminococcus gnavus strain: ATCC29149 for biotransformation. The drug concentrations were measured before and after a 12-h incubation by liquid-chromatography-coupled mass spectrometry (LC–MS)
Settings: mediterraneibacter gnavus, 2 µM

Structure (SMILES) | Bacterial Biotransformation
CN1CCN2c3ccccc3Cc3ccccc3C2C1 (stereo not given) [MIANSERIN] | Compound NOT metabolized
Cc1cc2c(s1)Nc1ccccc1N=C2N1CCN(C)CC1 [OLANZAPINE] | Compound NOT metabolized
CC(=O)O[C@]1(C(C)=O)CC[C@H]2[C@@H]3C=C(Cl)C4=CC(=O)[C@@H]5C[C@@H]5[C@]4(C)[C@H]3CC[C@@]21C [CYPROTERONE ACETATE] | Compound NOT metabolized

Test: The drug is tested on Bifidobacterium ruminantium strain: fecal isolate for biotransformation. The drug concentrations were measured before and after a 12-h incubation by liquid-chromatography-coupled mass spectrometry (LC–MS)
Settings: 2 µM

Structure (SMILES) | Bacterial Biotransformation
CN1CCN2c3ccccc3Cc3ccccc3C2C1 (stereo not given) [MIANSERIN] | Compound NOT metabolized
Cc1cc2c(s1)Nc1ccccc1N=C2N1CCN(C)CC1 [OLANZAPINE] | Compound NOT metabolized
CC(=O)O[C@]1(C(C)=O)CC[C@H]2[C@@H]3C=C(Cl)C4=CC(=O)[C@@H]5C[C@@H]5[C@]4(C)[C@H]3CC[C@@]21C [CYPROTERONE ACETATE] | Compound NOT metabolized

Test: The drug is tested on Clostridium ramosum strain: DSM1402 for biotransformation. The drug concentrations were measured before and after a 12-h incubation by liquid-chromatography-coupled mass spectrometry (LC–MS)
Settings: thomasclavelia ramosa, 2 µM

Structure (SMILES) | Bacterial Biotransformation
CN1CCN2c3ccccc3Cc3ccccc3C2C1 (stereo not given) [MIANSERIN] | Compound NOT metabolized
Cc1cc2c(s1)Nc1ccccc1N=C2N1CCN(C)CC1 [OLANZAPINE] | Compound NOT metabolized
CC(=O)O[C@]1(C(C)=O)CC[C@H]2[C@@H]3C=C(Cl)C4=CC(=O)[C@@H]5C[C@@H]5[C@]4(C)[C@H]3CC[C@@]21C [CYPROTERONE ACETATE] | Compound NOT metabolized

Settings: bacteroides thetaiotaomicron, 12 h, 2 µM
Description: The drug is tested on Bacteroides thetaiotaomicron strain: 3731 for biotransformation. The drug concentrations were measured before and after a 12-h incubation by liquid-chromatography-coupled mass spectrometry (LC–MS)

Structure (SMILES) | Bacterial Biotransformation
CN1CCN2c3ccccc3Cc3ccccc3C2C1 (stereo not given) [MIANSERIN] | Compound NOT metabolized
Cc1cc2c(s1)Nc1ccccc1N=C2N1CCN(C)CC1 [OLANZAPINE] | Compound NOT metabolized
CC(=O)O[C@]1(C(C)=O)CC[C@H]2[C@@H]3C=C(Cl)C4=CC(=O)[C@@H]5C[C@@H]5[C@]4(C)[C@H]3CC[C@@]21C [CYPROTERONE ACETATE] | Compound metabolized

Test: The drug is tested on Bacteroides fragilis strain: HMW615 for biotransformation. The drug concentrations were measured before and after a 12-h incubation by liquid-chromatography-coupled mass spectrometry (LC–MS)
Settings: 2 µM

Structure (SMILES) | Bacterial Biotransformation
CN1CCN2c3ccccc3Cc3ccccc3C2C1 (stereo not given) [MIANSERIN] | Compound NOT metabolized
Cc1cc2c(s1)Nc1ccccc1N=C2N1CCN(C)CC1 [OLANZAPINE] | Compound metabolized
CC(=O)O[C@]1(C(C)=O)CC[C@H]2[C@@H]3C=C(Cl)C4=CC(=O)[C@@H]5C[C@@H]5[C@]4(C)[C@H]3CC[C@@]21C [CYPROTERONE ACETATE] | Compound metabolized

Settings: roseburia intestinalis, 12 h, 2 µM
Description: The drug is tested on Roseburia intestinalis strain: L1-82 for biotransformation. The drug concentrations were measured before and after a 12-h incubation by liquid-chromatography-coupled mass spectrometry (LC–MS)

Structure (SMILES) | Bacterial Biotransformation
Cc1cc2c(s1)Nc1ccccc1N=C2N1CCN(C)CC1 [OLANZAPINE] | Compound NOT metabolized
CC(=O)O[C@]1(C(C)=O)CC[C@H]2[C@@H]3C=C(Cl)C4=CC(=O)[C@@H]5C[C@@H]5[C@]4(C)[C@H]3CC[C@@]21C [CYPROTERONE ACETATE] | Compound NOT metabolized

Test: The drug is tested on Bifidobacterium longum subsp. Infantis strain: CCUG52486 for biotransformation. The drug concentrations were measured before and after a 12-h incubation by liquid-chromatography-coupled mass spectrometry (LC–MS)
Settings: 2 µM

Structure (SMILES) | Bacterial Biotransformation
CN1CCN2c3ccccc3Cc3ccccc3C2C1 (stereo not given) [MIANSERIN] | Compound NOT metabolized
Cc1cc2c(s1)Nc1ccccc1N=C2N1CCN(C)CC1 [OLANZAPINE] | Compound NOT metabolized
CC(=O)O[C@]1(C(C)=O)CC[C@H]2[C@@H]3C=C(Cl)C4=CC(=O)[C@@H]5C[C@@H]5[C@]4(C)[C@H]3CC[C@@]21C [CYPROTERONE ACETATE] | Compound NOT metabolized

Settings: akkermansia muciniphila, 12 h, 2 µM
Description: The drug is tested on Akkermansia muciniphila strain: ATCC BAA-835 for biotransformation. The drug concentrations were measured before and after a 12-h incubation by liquid-chromatography-coupled mass spectrometry (LC–MS)

Structure (SMILES) | Bacterial Biotransformation
CN1CCN2c3ccccc3Cc3ccccc3C2C1 (stereo not given) [MIANSERIN] | Compound NOT metabolized
Cc1cc2c(s1)Nc1ccccc1N=C2N1CCN(C)CC1 [OLANZAPINE] | Compound NOT metabolized
CC(=O)O[C@]1(C(C)=O)CC[C@H]2[C@@H]3C=C(Cl)C4=CC(=O)[C@@H]5C[C@@H]5[C@]4(C)[C@H]3CC[C@@]21C [CYPROTERONE ACETATE] | Compound NOT metabolized

Test: The drug is tested on Bacteroides finegoldii strain: DSM17565 for biotransformation. The drug concentrations were measured before and after a 12-h incubation by liquid-chromatography-coupled mass spectrometry (LC–MS)
Settings: 2 µM

Structure (SMILES) | Bacterial Biotransformation
CN1CCN2c3ccccc3Cc3ccccc3C2C1 (stereo not given) [MIANSERIN] | Compound NOT metabolized
Cc1cc2c(s1)Nc1ccccc1N=C2N1CCN(C)CC1 [OLANZAPINE] | Compound NOT metabolized
CC(=O)O[C@]1(C(C)=O)CC[C@H]2[C@@H]3C=C(Cl)C4=CC(=O)[C@@H]5C[C@@H]5[C@]4(C)[C@H]3CC[C@@]21C [CYPROTERONE ACETATE] | Compound NOT metabolized

Settings: limosilactobacillus reuteri cf48-3a, 12 h, 2 µM
Description: The drug is tested on Lactobacillus reuteri CF48-3A strain: BEI HM-102 for biotransformation. The drug concentrations were measured before and after a 12-h incubation by liquid-chromatography-coupled mass spectrometry (LC–MS)

Structure (SMILES) | Bacterial Biotransformation
CN1CCN2c3ccccc3Cc3ccccc3C2C1 (stereo not given) [MIANSERIN] | Compound NOT metabolized
Cc1cc2c(s1)Nc1ccccc1N=C2N1CCN(C)CC1 [OLANZAPINE] | Compound NOT metabolized
CC(=O)O[C@]1(C(C)=O)CC[C@H]2[C@@H]3C=C(Cl)C4=CC(=O)[C@@H]5C[C@@H]5[C@]4(C)[C@H]3CC[C@@]21C [CYPROTERONE ACETATE] | Compound NOT metabolized

Settings: bacteroides intestinalis, 12 h, 2 µM
Description: The drug is tested on Bacteroides intestinalis strain: DSM17393 for biotransformation. The drug concentrations were measured before and after a 12-h incubation by liquid-chromatography-coupled mass spectrometry (LC–MS)

Structure (SMILES) | Bacterial Biotransformation
CN1CCN2c3ccccc3Cc3ccccc3C2C1 (stereo not given) [MIANSERIN] | Compound NOT metabolized
Cc1cc2c(s1)Nc1ccccc1N=C2N1CCN(C)CC1 [OLANZAPINE] | Compound NOT metabolized
CC(=O)O[C@]1(C(C)=O)CC[C@H]2[C@@H]3C=C(Cl)C4=CC(=O)[C@@H]5C[C@@H]5[C@]4(C)[C@H]3CC[C@@]21C [CYPROTERONE ACETATE] | Compound metabolized

Test: The drug is tested on Bacteroides dorei strain: DSM17855 for biotransformation. The drug concentrations were measured before and after a 12-h incubation by liquid-chromatography-coupled mass spectrometry (LC–MS)
Settings: phocaeicola dorei, 2 µM

Structure (SMILES) | Bacterial Biotransformation
CN1CCN2c3ccccc3Cc3ccccc3C2C1 (stereo not given) [MIANSERIN] | Compound NOT metabolized
Cc1cc2c(s1)Nc1ccccc1N=C2N1CCN(C)CC1 [OLANZAPINE] | Compound NOT metabolized
CC(=O)O[C@]1(C(C)=O)CC[C@H]2[C@@H]3C=C(Cl)C4=CC(=O)[C@@H]5C[C@@H]5[C@]4(C)[C@H]3CC[C@@]21C [CYPROTERONE ACETATE] | Compound metabolized

Test: The drug is tested on Eubacterium ventriosum strain: ATCC27560 for biotransformation. The drug concentrations were measured before and after a 12-h incubation by liquid-chromatography-coupled mass spectrometry (LC–MS)
Type: ADME
Design: dose 2 uM, timepoint 0 vs 12 hours
Settings: 2 µM

Structure (SMILES) | Bacterial Biotransformation
CN1CCN2c3ccccc3Cc3ccccc3C2C1 (stereo not given) [MIANSERIN] | Compound NOT metabolized
Cc1cc2c(s1)Nc1ccccc1N=C2N1CCN(C)CC1 [OLANZAPINE] | Compound NOT metabolized
CC(=O)O[C@]1(C(C)=O)CC[C@H]2[C@@H]3C=C(Cl)C4=CC(=O)[C@@H]5C[C@@H]5[C@]4(C)[C@H]3CC[C@@]21C [CYPROTERONE ACETATE] | Compound NOT metabolized

Test: The drug is tested on Eubacterium hallii strain: DSM3353 for biotransformation. The drug concentrations were measured before and after a 12-h incubation by liquid-chromatography-coupled mass spectrometry (LC–MS)
Settings: anaerobutyricum hallii, 2 µM

Structure (SMILES) | Bacterial Biotransformation
CN1CCN2c3ccccc3Cc3ccccc3C2C1 (stereo not given) [MIANSERIN] | Compound NOT metabolized
Cc1cc2c(s1)Nc1ccccc1N=C2N1CCN(C)CC1 [OLANZAPINE] | Compound NOT metabolized
CC(=O)O[C@]1(C(C)=O)CC[C@H]2[C@@H]3C=C(Cl)C4=CC(=O)[C@@H]5C[C@@H]5[C@]4(C)[C@H]3CC[C@@]21C [CYPROTERONE ACETATE] | Compound NOT metabolized

Settings: bacteroides fragilis, 12 h, 2 µM
Description: The drug is tested on Bacteroides fragilis strain: NCTC 9343 for biotransformation. The drug concentrations were measured before and after a 12-h incubation by liquid-chromatography-coupled mass spectrometry (LC–MS)

Structure (SMILES) | Bacterial Biotransformation
CN1CCN2c3ccccc3Cc3ccccc3C2C1 (stereo not given) [MIANSERIN] | Compound NOT metabolized
Cc1cc2c(s1)Nc1ccccc1N=C2N1CCN(C)CC1 [OLANZAPINE] | Compound NOT metabolized
CC(=O)O[C@]1(C(C)=O)CC[C@H]2[C@@H]3C=C(Cl)C4=CC(=O)[C@@H]5C[C@@H]5[C@]4(C)[C@H]3CC[C@@]21C [CYPROTERONE ACETATE] | Compound metabolized

Test: The drug is tested on Anaerotruncus colihominis strain: DSM17241 for biotransformation. The drug concentrations were measured before and after a 12-h incubation by liquid-chromatography-coupled mass spectrometry (LC–MS)
Settings: 2 µM

Structure (SMILES) | Bacterial Biotransformation
CN1CCN2c3ccccc3Cc3ccccc3C2C1 (stereo not given) [MIANSERIN] | Compound NOT metabolized
Cc1cc2c(s1)Nc1ccccc1N=C2N1CCN(C)CC1 [OLANZAPINE] | Compound NOT metabolized
CC(=O)O[C@]1(C(C)=O)CC[C@H]2[C@@H]3C=C(Cl)C4=CC(=O)[C@@H]5C[C@@H]5[C@]4(C)[C@H]3CC[C@@]21C [CYPROTERONE ACETATE] | Compound metabolized
